This experiment concerns the target T1, Rba. sphaeroides LH2 complex (light-harvesting 2 antenna, LH2 αβ) (Cereibacter sphaeroides, UniProt Q3J144+Q3J145).
T1 construct: gene pucA; native untagged complex purified from Rba. sphaeroides B7 membranes in LDAO; nonamer of αβ heterodimers; alpha N-terminal carboxymethionine; beta C-terminus Gly51
Nature of the experiment: cryo-EM structure ([…] Å). The format is binding. The conditions noted are these: one carotenoid per αβ heterodimer (9 per nonamer); native bound pigment; pH 7.8, LDAO.

Each structure is given as a SMILES string.

T1 sequence (Q3J145 whole entry): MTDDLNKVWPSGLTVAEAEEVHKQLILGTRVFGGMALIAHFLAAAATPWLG
T1 sequence (Q3J144 1-50): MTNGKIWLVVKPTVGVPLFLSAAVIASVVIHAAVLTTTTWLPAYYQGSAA

`COC(C)(C)C/C=C/C(C)=C/C=C/C(C)=C/C=C/C(C)=C/C=C/C=C(C)/C=C/C=C(\C)CC/C=C(\C)CCC=C(C)C` [spheroidene]: the “cryo-EM structure (2.1 Å)” value is given as “the carotenoid spheroidene adopts an all-trans conformation as it winds through the LH2 complex”.

For the origin of these results see article PMC8775250, “Cryo-EM Structure of the Rhodobacter sphaeroides Light-Harvesting 2 Complex at 2.1 Å” (Biochemistry, 2021).
